# Results reported in patent US9682990B2, “Alcohol-, diol-, and carbohydrate-substituted indenoisoquinolines as topoisomerase I inhibitors” (Purdue Research Foundation, priority 2011, dated 2017).
# Where two headings read alike, the source gives them in different places.
# What was measured:
# [1] = system: all human cancer cell lines successfully tested; assay: NCI-60 cell line assay, mean-graph midpoint; assay type: cell-based; settings: for GI50: read-out: MGM GI50; for MGM (mean graph midpoint for growth inhibition): all human cancer cell lines tested, 10^−8 to 10^−4 molar
# Description: Biological Results. The indenoisoquinoline analogues were tested for antiproliferative activity in the National Cancer Institute's Developmental Therapeutics Assay against cell lines derived from approximately 60 different human tumors. […] The cytotoxicities of the compounds to cultured cancer cells were measured in the National Cancer Institute's 60 cell line assay (a.k.a. NCI-60).
# [2] = system: cell lines derived from approximately 60 different human tumors; assay: NCI initial one-dose screening assay; assay type: cell-based; settings: percentage of cell growth, one-dose assay at 10 μM
# [3] = system: SF-539 (CNS); assay: NCI Developmental Therapeutics antiproliferative assay, SF-539; assay type: cell-based, human
# Description: (§1) Biological Results. The indenoisoquinoline analogues were tested for antiproliferative activity in the National Cancer Institute's Developmental Therapeutics Assay against cell lines derived from approximately 60 different human tumors. […] Results are reported in Table 2 as GI50 values for selected cell lines, and overall antiproliferative potency is quantified as a mean-graph midpoint (MGM).
# [4] = system: OVCAR-3 (Ovarian); assay: NCI Developmental Therapeutics antiproliferative assay, OVCAR-3; assay type: cell-based, human
# Description: as §1
# [5] = system: MCF7 (Breast); assay: NCI Developmental Therapeutics antiproliferative assay, MCF7; assay type: cell-based, human
# Description: as §1
# [6] = system: SN12C (Renal); assay: NCI Developmental Therapeutics antiproliferative assay, SN12C; assay type: cell-based, human
# Description: as §1
# [7] = system: UACC-62 (Melanoma); assay: NCI Developmental Therapeutics antiproliferative assay, UACC-62; assay type: cell-based, human
# Description: (§2) Biological Results. The indenoisoquinoline analogues were tested for antiproliferative activity in the National Cancer Institute's Developmental Therapeutics Assay against cell lines derived from approximately 60 different human tumors.
# [8] = system: HCT-116 (Colon); assay: NCI Developmental Therapeutics antiproliferative assay, HCT-116; assay type: cell-based, human
# Description: as §2
# [9] = system: HOP-62 (Lung); assay: NCI Developmental Therapeutics antiproliferative assay, HOP-62; assay type: cell-based, human
# Description: as §2
# [10] = system: DU-145 (Prostate); assay: NCI Developmental Therapeutics antiproliferative assay, DU-145; assay type: cell-based, human
# Description: as §2
Compound,Growth Percent [2] [%],MGM (mean graph midpoint for growth inhibition) [1] [µM],GI50 [3] [nM],GI50 [4] [nM],GI50 [5] [nM],GI50 [6] [nM],GI50 [7] [nM],GI50 [9] [nM],also measured
NCCCn1c2c(c3ccc([N+](=O)[O-])cc3c1=O)C(=O)c1cc3c(cc1-2)OCO3 [reference compound],–,–,–,–,–,–,–,–,"GI50 ([1]; Homo sapiens, Table 3, NCI-60, unit inferred): 90 ± 40 nM"
"O=C1c2ccccc2-c2c1c1ccccc1c(=O)n2C[C@H](O)[C@H](O)[C@H](O)CO [Compound 17b, (2′S,3′S,4′R)-5,6-Dihydro-6-(2′,3′,4′,5′-tetrahydroxypentyl)-5,11-dioxo-11H-indeno[1,2-c]isoquinoline]",17.28,3.31,2140,13500,1380,2400,3230,–,–
"O=C1c2ccccc2-c2c1c1ccccc1c(=O)n2CC(O)CO (racemic) [Compound 12c, (2′RS)-5,6-Dihydro-6-[(2′,3′-dihydroxypropyl)]-5,11-dioxo-11H-indeno[1,2-c]isoquinoline]",–,5.13,–,–,–,–,–,–,"GI50 ([8]; Homo sapiens, HCT-116, 50% growth inhibition, read-out: Cytotoxicity (GI50) Colon HCT-116): 4360 nM; GI50 ([1]; Homo sapiens): 5130 nM; GI50 ([3]; Homo sapiens, SF-539, 50% growth inhibition, read-out: Cytotoxicity (GI50) CNS SF-539): 5890 nM; GI50 ([9]; Homo sapiens, HOP-62, 50% growth inhibition, read-out: Cytotoxicity (GI50) Lung HOP-62): 7760 nM; GI50 ([4]; Homo sapiens, OVCAR-3, 50% growth inhibition, read-out: Cytotoxicity (GI50) Ovarian OVCAR-3): 18600 nM; GI50 ([5]; Homo sapiens, MCF7, 50% growth inhibition, read-out: Cytotoxicity (GI50) Breast MCF7): 3550 nM; GI50 ([10]; Homo sapiens, DU-145, 50% growth inhibition, read-out: Cytotoxicity (GI50) Prostate DU-145): 2880 nM; GI50 ([6]; Homo sapiens, SN12C, 50% growth inhibition, read-out: Cytotoxicity (GI50) Renal SN12C): 2950 nM; GI50 ([7]; Homo sapiens, UACC-62, 50% growth inhibition, read-out: Cytotoxicity (GI50) Melanoma UACC-62): 7580 nM"
"(1′R)-5,6-Dihydro-6-(3′-hydroxy-1′-methylethyl)-5,11-dioxo-11H-indeno[1,2-c]isoquinoline [Compound 22b]",78.60,–,–,–,–,–,–,–,–
"C[C@H](O)Cn1c2c(c3ccccc3c1=O)C(=O)c1ccccc1-2 [Compound 27b, (2′S)-5,6-Dihydro-6-(2′-hydroxypropyl)-5,11-dioxo-11H-indeno[1,2-c]isoquinoline]",54.88,–,–,–,–,–,–,–,–
"COc1cc2c3c(n(C[C@H](O)CO)c(=O)c2cc1OC)-c1ccccc1C3=O [Compound 29, (2′S)-5,6-Dihydro-6-(2′,3′-dihydroxypropyl)-2,3-dimethoxy-5,11-dioxo-11H-indeno[1,2-c]isoquinoline]",–,0.401 ± 0.055,214,287,97,501,144,336,GI50 [8]: 230 nM; GI50 [1]: 401 nM; GI50 [10]: 419 nM
"NC[C@H](O)Cn1c2c(c3ccccc3c1=O)C(=O)c1ccccc1-2 [Compound 27d, (2′RS)-5,6-Dihydro-6-(3′-amino-2′-hydroxypropyl)-5,11-dioxo-11H-indeno[1,2-c]isoquinoline]",−23.49,0.348 ± 0.109,344,1320,198,206,318,276,GI50 [8]: 263 nM; GI50 [1]: 348 nM; GI50 [10]: 130 nM
"O=C1c2ccccc2-c2c1c1ccccc1c(=O)n2C[C@H](O)[C@@H](O)[C@@H](O)CO [Compound 17g, (2′S,3′R,4′S,5′R)-5,6-Dihydro-6-(2′,3′,4′,5′-tetrahydroxypentyl)-5,11-dioxo-11H-indeno[1,2-c]isoquinoline]",67.99,–,–,–,–,–,–,–,–
"O=C1c2ccccc2-c2c1c1ccccc1c(=O)n2C[C@@H](O)[C@H](O)[C@H](O)CO [Compound 17a, (2′R, 3′S, 4′R)-5,6-Dihydro-6-(2′,3′,4′,5′-tetrahydroxypentyl)-5,11-dioxo-11H-indeno[1,2-c]isoquinoline]",58.44,19.9,7590,> 100000,4570,20000,7410,8710,–
"O=C1c2ccccc2-c2c1c1ccccc1c(=O)n2C[C@@H](O)[C@@H](O)[C@H](O)CO [Compound 17e, (2′R,3′R,4′R)-5,6-Dihydro-6-(2′,3′,4′,5′-tetrahydroxypentyl)-5,11-dioxo-11H-indeno[1,2-c]isoquinoline]",50.62,7.76,11200,13200,1900,5010,6310,6460,–
